# Measured values: paper PMC9270351, “Conjugates of urolithin A with NSAIDs, their stability, cytotoxicity, and anti-inflammatory potential” (Scientific Reports, 2022)
# How the values were obtained:
# THP-1 monocytes = experiment: PI flow cytometric assay, cell viability; format: cell-based, human; settings: 24-h incubation
# Protocol: THP-1 monocytes were seeded in 24-well plates at a density of 400,000. Selected UADs (2–50 µM), control (0.25% DMSO in PBS), UA (50 µM) and parthenolide (25 µM) as a control were added to THP-1 monocytes and left for 24-h incubation at 37 °C under humidified 5% CO2 in the culture medium containing RPMI 1640 without phenol red supplemented with 10% FBS and 2 mM glutamine. After that time, cell suspensions were transferred to Eppendorf tubes, centrifuged, stained with propidium iodide (PI) and analyzed using FACS (MACSQuant® Analyze, Miltenyi Biotec, Bergisch Gladbach, Germany). The cell viability was reported as the percentage of PI(−) cells.
# [1] = test system: THP-1 derived macrophages; experiment: MTT assay, cell viability; format: cell-based, human; settings: tested concentration range 2–50 µM; 1 h treatment, then LPS for 3 or 24 h
# Protocol: THP-1 human monocytic cells (DSMZ, Braunschweig, Germany) were studied between passages 4 and 19. Monocytes were differentiated into THP-1 derived macrophages according to modified, previously described protocol. THP-1 monocytes were seeded in 24-well plates at a density of 400,000 cells per well. Cells were incubated at 37 °C under humidified 5% CO2 in the culture medium containing RPMI 1640 without phenol red supplemented with 10% FBS and 2 mM glutamine. In order to differentiate THP-1 monocytes into macrophages, cells were treated with 25 ng/mL PMA followed by 48 h incubation, medium change and an additional 24 h resting. Selected UADs were added to THP-1 derived macrophages at concentrations 2–50 µM and left for 1-h resting. Next, cells were treated with 10 ng/ml LPS. […]
# THP-1 monocytes were seeded in 24-well plates at a density of 400,000 cells per well and differentiated into THP-1 derived macrophages according to the method described above. […] After medium removal, crystals were dissolved in 400 µL DMSO, 200 µL of solution was transferred to 96-well plate and the absorbance of the solution was measured at λ = 570 nm with the correction to 630 nm using a microplate reader. […]
# [2] = test system: IL-10 secretion in LPS-stimulated THP-1 derived macrophages; experiment: IL-10 secretion of LPS-stimulated macrophages (ELISA); format: cell-based, human; settings: over tested concentrations; 1 h treatment, then LPS 24 h
# Protocol: (§1) THP-1 human monocytic cells (DSMZ, Braunschweig, Germany) were studied between passages 4 and 19. Monocytes were differentiated into THP-1 derived macrophages according to modified, previously described protocol. THP-1 monocytes were seeded in 24-well plates at a density of 400,000 cells per well. Cells were incubated at 37 °C under humidified 5% CO2 in the culture medium containing RPMI 1640 without phenol red supplemented with 10% FBS and 2 mM glutamine. In order to differentiate THP-1 monocytes into macrophages, cells were treated with 25 ng/mL PMA followed by 48 h incubation, medium change and an additional 24 h resting. Selected UADs were added to THP-1 derived macrophages at concentrations 2–50 µM and left for 1-h resting. Next, cells were treated with 10 ng/ml LPS. Successful differentiation was confirmed by the presence of distinguishing macrophage markers such as: cell adherence, changes in morphology and response to bacterial LPS stimulation and, consequently, TNF-α secretion.
# (§2) After treatment with the test compounds for 1 h and subsequent stimulation with LPS for 3 h (for TNF-α secretion measurements) or 24 h (for IL-10 and IL-6 secretion measurements) supernatants were collected. The secretion of cytokines levels was measured by ELISA kits according to the manufacturer’s instruction (Human TNF-α, Human IL-10 and Human IL-6 ELISA kits, BD Biosciences, Franklin Lakes, NJ, USA). […]
# [3] = test system: TNF-α secretion in LPS-stimulated THP-1 derived macrophages; experiment: TNF-α secretion of LPS-stimulated macrophages (ELISA); format: cell-based, human; settings: over tested concentrations; 1 h treatment, then LPS 3 h
# Protocol: as §1, §2
# [4] = test system: IL-6 secretion in LPS-stimulated THP-1 derived macrophages; experiment: IL-6 secretion of LPS-stimulated macrophages (ELISA); format: cell-based, human; settings: 1 h treatment, then LPS 24 h
# Protocol: as §1, §2
smiles,measurement,setting,value
"COc1ccc2c(c1)c(=O)oc1cc(OC(=O)Cc3ccccc3Nc3c(Cl)cccc3Cl)ccc12 [Mix 9, 8-methoxy-6-oxo-6H-benzo[c]chromen-3-yl 2-(2-((2,6-dichlorophenyl)amino)phenyl)acetate]",melting point,,207.3 to 208.5 °C
C=C1C(=O)O[C@H]2[C@H]1CC/C(C)=C/CC[C@@]1(C)O[C@@H]21 [parthenolide],"Cell viability (PI-stained cells, flow cytometry)","THP-1 monocytes; 25 µM, positive control",decreased THP-1 viability
"COc1ccc2c(c1)c(=O)oc1cc(OC(=O)C(C)c3ccc(CC(C)C)cc3)ccc12 (stereo not shown) [Mix 7, 8-methoxy-6-oxo-6H-benzo[c]chromen-3-yl 2-(4-isobutylphenyl)propanoate]",melting point,,114.4 to 115.7 °C
"O=c1oc2cc(O)ccc2c2ccc(O)cc12 [UA, 3,8-dihydroxy-6H-benzo[c]chromen-6-one]",Cell viability / cytotoxic effect (MTT),[1],no cytotoxic effect was observed
same,Effect on IL-10 secretion,[2],did not significantly affect IL-10 secretion
same,Effect on TNF-α secretion,[3],inhibitory effect on TNF-α secretion in a dose-dependent manner
same,"Cell viability (PI-stained cells, flow cytometry)",THP-1 monocytes; 50 µM,"Slight, yet statistically significant decline in monocytes viability"
same,Effect on IL-6 secretion,[4]; 50 µM,inhibited secretion of IL-6
"COc1ccc2c(c1)c(=O)oc1cc(OC(=O)c3ccccc3Nc3cccc(C)c3C)ccc12 [Mix 8, 8-methoxy-6-oxo-6H-benzo[c]chromen-3-yl 2-((2,3-dimethylphenyl)amino)benzoate]",melting point,,186.7 to 189.2 °C
Cc1cccc(Nc2ccccc2C(=O)O)c1C [mefenamic acid],Effect on IL-10 secretion,[2],did not influence IL-10 secretion
same,Effect on TNF-α secretion,[3],stimulating effect
same,Effect on IL-6 secretion,[4]; over tested concentrations,increased IL-6 production in a dose-dependent manner
"COc1ccc2c(c1)c(=O)oc1cc(OC(=O)c3ccccc3OC(C)=O)ccc12 [Mix 10, 8-methoxy-6-oxo-6H-benzo[c]chromen-3-yl 2-acetoxybenzoate]",melting point,,192.6 to 193.5 °C
